According to US12377086B2, “Therapeutic methods, combinations and kits” (priority 2021, dated 2025):
Like-named read-outs stand apart in the source and are kept apart here.

Legend:
Assay in all cases: biochemical
[1] = target: NDM-1 (Klebsiella pneumoniae, UniProt C7C422)
Method: BL21 (DE3) E. coli cells containing the pET26b-ndm-1 plasmid were used to inoculate a 50 mL LB starter culture containing kanamycin (25 μg/mL). The culture was grown overnight at 37° C. The starter culture was then used to inoculate 4×1 L LB containing kanamycin (25 μg/mL). These flasks were incubated at 37° C. until culture reached an optical density of (OD600) of 0.6 to 0.8. The incubator was then set to 22° C. and the cultures were shaken for 30 min to allow them to cool. ZnCl2 ([…]) and IPTG (0.5 mM) were then added to the cultures and they were grown for 18 h at 22° C. The cells were then harvested using centrifugation (8000×g) for 10 min. The pellet was resuspended with 25 mL 50 mM HEPES, pH 7.5 containing 500 mM NaCl (Buffer B). Lysis was performed with three passes through a French Press. The lysate was centrifuged for 30 min (15,000×g) at 4° C. The supernatant was then dialyzed versus 2 L 50 mM HEPES, pH 7.5 (Buffer C) for 4 h. An FPLC was used to equilibrate a Q-Sepharose column using buffer C using a flowrate of 2.0 mL/min for 1.5 h. The lysate was then loaded onto the column and eluted with a linear NaCl gradient from 0-500 mM. Fractions containing NDM-1 were identified with SDS-PAGE. These fractions were pooled and concentrated to 2-3 mL in an Amicon ultracentrifugation concentrating unit with a YM-10 membrane. The resulting protein mixture was then loaded onto a Sephacryl S-200 gel filtration column run with 50 mM HEPES, pH 7.5 containing 150 mM NaCl (Buffer A). SDS-PAGE was used to identify fractions containing pure protein.
(§1) To identify potential MBL inhibitors, the relative change in the formation of hydrolyzed nitrocefin between treated and untreated MBL was determined as percentage inhibition. 5 nM of each BML was pre-incubated for 10 mins with 50 μM of each compound, followed by the addition of 10 μM nitrocefin.
(§2) Each MBL was incubated with 50 μM of each compound, followed by the addition of nitrocefin. The relative change in absorbance is reported as percentage inhibition.

[2] = target: T1, VIM-2 (Pseudomonas aeruginosa, UniProt Q5U7L7)
Method: (§3) The pET24a-VIM-2 plasmid was transformed into competent BL21 (DE3) E. coli cells. The cells were plated onto an LB-agar plate with kanamycin (25 μg/mL) and incubated overnight at 37° C. A single colony was used to inoculate 50 mL of LB, containing 25 μg/mL kanamycin, and the culture was shaken overnight at 37° C. From the overnight culture, 10 mL were transferred to 4×IL LB medium containing 25 μg/mL kanamycin. The cultures were grown at 37° C. until an optical density (OD600 nm) of 0.6-0.8 was reached, at which point protein production was induced with IPTG (0.5 mM) and ZnCl2 (100 μM). The temperature was reduced to 20° C., and the cells were shaken for an additional 18 h. The cultures were harvested by centrifugation (8 Kxg) for 10 min at 4° C. The resulting pellets were re-suspended in 25 mL of 50 mM HEPES, pH 7.5, containing 500 mM NaCl (buffer B). The cells were lysed with three passes through a French Press. The lysate was centrifuged (15 Kxg) for 30 min at 4° C. The supernatant was dialyzed against 2 L of 50 mM HEPES, pH 7.5 (buffer A), for 4 h. Buffer A was used to equilibrate a 25 mL Q-Sepharose column using an FPLC. The sample was loaded onto the column, and proteins were eluted with a linear gradient 0-500 mM NaCl with buffer B. Fractions containing VIM-2, determined by SDS-PAGE, were pooled and concentrated to 2-3 mL in an Amicon ultraconcentrator equipped YM-10 membrane. Further purification was conducted with a Sephacryl S-200 gel filtration column using 50 mM HEPES, pH 7.5, containing 150 mM NaCl. Fractions containing pure VIM-2 were pooled, and metal analysis was performed.
as §1, §2

[3] = target: T1, VIM-2; remark: listed apart in the source
Method: as §3, with “Further purification was conducted with a Sephacryl S-200 gel filtration column using 50 mM HEPES, pH 7.5, containing 150 mM NaCl.” left out
The enzyme inhibition constant (Ki) was derived from initial-velocity measurements by nonlinear regression using competitive-inhibition enzyme kinetics using Graphpad Prism 6.

[4] = 50 μM compound, 5 nM MBL, 10 μM nitrocefin, 30 mins, read-out: NDM-1 percentage inhibition
[5] = 50 μM compound, 5 nM MBL, 10 μM nitrocefin, 30 mins, read-out: VIM-2 percentage inhibition
[6] = 50 μM compound, 5 nM MBL, 10 μM nitrocefin, 30 mins
[7] = read-out: NDM-1 percentage inhibition, 50 μM compound, 5 nM MBL, 10 μM nitrocefin, 30 mins
[8] = read-out: VIM-2 percentage inhibition
[9] = 5 nM MBL, 10 μM nitrocefin, read-out: VIM-2 IC50
[10] = nitrocefin substrate, competitive-inhibition fit, read-out: VIM-2 Ki

Chain of NDM-1 (C7C422 whole entry, looked up, species assumed): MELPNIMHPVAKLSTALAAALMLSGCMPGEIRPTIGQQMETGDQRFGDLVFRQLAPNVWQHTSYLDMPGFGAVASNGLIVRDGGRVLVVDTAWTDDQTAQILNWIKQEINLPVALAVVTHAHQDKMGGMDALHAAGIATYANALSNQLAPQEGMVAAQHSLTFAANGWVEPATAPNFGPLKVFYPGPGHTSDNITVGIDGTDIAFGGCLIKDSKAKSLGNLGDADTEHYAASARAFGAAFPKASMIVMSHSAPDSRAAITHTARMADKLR

SMILES	inhibition at 50 µM [1, 4] [%]	inhibition at 50 µM [2, 5] [%]	VIM-2 percentage inhibition [2, 6] [%]	other results
Nc1nc(S)ncc1C(=O)O [Compound 7]	44	9		
O=C(NO)c1n[nH]c(Cl)n1 [Compound 16]	49	8		
Oc1ccc2ccccc2n1 [Compound 32]			9	NDM-1 percentage inhibition [1, 6]: 0%
Cc1cc(C(=O)O)nc(O)n1 [Compound 27]	54	17		
Oc1ccnc2ccccc12 [Compound 34]			9	NDM-1 percentage inhibition [1, 6]: 1%
Oc1ccnc(S)n1 [Compound 6]				inhibition at 50 µM [1, 7]: 48%; inhibition at 50 µM [2, 8]: 13%
O=C(O)c1c(O)cccc1O [Compound 14]	51	4		
O=C(c1ccc(O)cc1)c1ccc(O)c(O)c1O [Compound 13]	40	40	48	IC50 [3]: 81 µM; Ki [3]: 8.8 µM; NDM-1 percentage inhibition [1, 6]: 36%
Cc1nc(S)nc(O)c1CC(=O)O [Compound 8]	63	18		
CC(S)C(=O)O (centres unmarked) [Compound 3]	50	17		
Cc1ccc(O)c(CO)n1 [Compound 28]	53	25		
Sc1nccc(-c2ccccn2)n1 [Compound 9]	43	29		
O=C(O)/C(S)=C\c1cccnc1 [Compound 5]	40	40		IC50 [3]: 24 µM; Ki [3]: 4.5 µM; NDM-1 percentage inhibition [1, 6]: 39%
Oc1ccc2cccnc2c1 [Compound 37]			3	NDM-1 percentage inhibition [1, 6]: 8%
Cc1nc2ccccc2c(=O)n1O [Compound 19]	46	22		
Oc1ccc(Cl)c2cccnc12 [Compound 46]			98	IC50 [3, 9]: 4.1 µM; Ki [3, 10]: 0.96 µM
O=C(O)c1cccc(C(=O)O)n1 [Compound 24]				inhibition at 50 µM [1, 7]: > 50%; inhibition at 50 µM [2, 8]: 15%
O=C(O)c1cc(O)cc(C(=O)O)n1 [Compound 25]				inhibition at 50 µM [2, 8]: 27%
Oc1ccc2ncccc2c1 [Compound 36]			7	NDM-1 percentage inhibition [1, 6]: 1%
Oc1c(Br)cc(Br)c2cccnc12 [Compound 49]			92	
Oc1cccc2ncccc12 [Compound 35]			6	NDM-1 percentage inhibition [1, 6]: 6%
O=C(CCCCCCC(=O)Nc1ccccc1)NO [Compound 15, SAHA, reference compound]		18		
CC(C)Cc1cc(C(=O)O)nc(O)n1 [Compound 26]	58	5		

SMILES	inhibition at 50 µM [1, 4] [%]	inhibition at 50 µM [2, 5] [%]	VIM-2 percentage inhibition [2, 6] [%]	other results
Cc1cc(C)n(-c2nc3ccccc3c(=O)n2O)n1 [Compound 20]		16		
Cc1ccc2cccc(O)c2n1 [Compound 40]			77	NDM-1 percentage inhibition [1, 6]: 9%
Nc1ccc(O)c2ncccc12 [Compound 42]			96	IC50 [3, 9]: 3.8 µM; Ki [3, 10]: 0.88 µM
O=c1c2ccccc2[nH]c(=S)n1O [Compound 21]		27		
Nc1cccc2cccnc12 [Compound 38]			43	NDM-1 percentage inhibition [1, 6]: 3%
O=C1[C@@H](c2ccccc2)SCN1O [Compound 17]	40	40	33	IC50 [3]: 41 µM; Ki [3]: 5.3 µM
CC(C)c1cc(C(=O)O)nc2[nH][nH]c(=O)c12 [Compound 29]		18		
O=c1c(-c2cccs2)[n+]([O-])c2ccccc2n1O [Compound 23]	51	25		
CC(=O)c1ccc(O)c(O)c1O [Compound 12]	18	22		
O=C(O)CC(S)C(=O)O (centres unmarked) [Compound 4]				inhibition at 50 µM [1, 7]: 39%; inhibition at 50 µM [2, 8]: 22%
Cc1ccc2c(Cl)cc(Cl)c(O)c2n1 [Compound 50]			95	IC50 [3, 9]: 4.8 µM; Ki [3, 10]: 0.96 µM
Oc1cnc2ccccc2c1 [Compound 33, 3-hydroxyquinoline]				inhibition at 50 µM [1, 7]: 33%; inhibition at 50 µM ([2]; read-out: VIM-2 percentage inhibition, 50 μM compound, 5 nM MBL, 10 μM nitrocefin, 30 mins): 95%
Sc1nccc(-c2cccs2)n1 [Compound 10]	8	21		
CCOC(=O)CS [Compound 2]	55	16		
O=C1c2ccccc2C(=O)N1O [Compound 18]	30	18		
Cc1cc(C(=O)O)nc2[nH][nH]c(=O)c12 [Compound 30]	66	21		
Oc1c(Cl)cc(Cl)c2cccnc12 [Compound 47]			96	IC50 [3, 9]: 4.1 µM; Ki [3, 10]: 1.1 µM
O=c1c(-c2ccco2)[n+]([O-])c2ccccc2n1O [Compound 22]	12	9		
O=C(O)c1ccnc2c(O)cccc12 [Compound 44]			92	
O=C(O)c1cnc2c(O)cccc2c1 [Compound 43]			91	IC50 [3, 9]: 1.6 µM; Ki [3, 10]: 0.53 µM
Cc1cc(C(=O)O)nc2[nH]c(=S)[nH]c(=O)c12 [Compound 11]	50	20		
[O-][n+]1cccc2cccc(O)c21 [Compound 39]			27	NDM-1 percentage inhibition [1, 6]: 7%
